Measurements reported in patent publication US20260272924A1, “ISOINDOLINE DERIVATIVE, BENZOINDOLE DERIVATIVE AND USE THEREOF” (SHANGHAI HELIOSON PHARMACEUTICAL CO., LTD., priority 2023, published 2026).

How the values were obtained:
[1] = clinical phase I trial, combined with dexamethasone, RRMM patients; cited from earlier work
CRBN = biological target: T1, CRBN (Homo sapiens, UniProt Q96SW2); experiment: CRBN binding assay (HTRF competition)
T1 construct: purchased Cisbio 64BDCRBNPEG
Text: Bonding activity between CRBN and compounds were detected by the HTRF competition assay using a CRBN binding kit (Cisbio, 64BDCRBNPEG). First, a reagent in the kit was equilibrated to room temperature and diluted to 1 fold with double-distilled water, and both the reagent and samples were uniformly mixed by thorough vortexing for later use. An europium-labeled specific GST antibody and an XL665-labeled thalidomide-red reagent (Cisbio, Cat No. 64BDCRBNPEG) were mixed in equal volumes in advance and then added into a 384-well white microplate at 10 μL per well. […] After uniform mixing, contents in the 384-well plate were sealed and incubated in the dark at room temperature for 3 hours.

Compound: N#Cc1ccc(N2CCN(Cc3ccc(COc4cccc5c4CN([C@H]4CCC(=O)NC4=O)C5=O)cc3)CC2)c(F)c1 [CC-92480, reference compound]
- objective response rate (ORR) [1]: 54.4%
- IC50 (CRBN): 108 nM
